Test results as given in US8106055B2, “Substituted amide compounds” (Gruenenthal GmbH, priority 2007, dated 2012).
Where two headings read alike, the source gives them in different places.

Columns and labels:
[1] = biological target: T1, bradykinin 1 receptor (B1R) of the rat (Rattus norvegicus, UniProt P97583); experiment: Functional investigation on the rat bradykinin 1 receptor (B1R), Ca2+ FLIPR assay in CHO K1 rB1R cells; format: cell-based; conditions: test substance 10 μM; for inhibition at 10 µM: CHO-K1, B1R antagonism rat, read-out: B1R Ant. r [10 μM] % Inhibition; for B1R Ant. r [10 μM] % Inhibition: B1R antagonism rat
T1 construct: expressed in transfected cells; host or cells: CHO K1 cells
T1 sequence (P97583 1-337): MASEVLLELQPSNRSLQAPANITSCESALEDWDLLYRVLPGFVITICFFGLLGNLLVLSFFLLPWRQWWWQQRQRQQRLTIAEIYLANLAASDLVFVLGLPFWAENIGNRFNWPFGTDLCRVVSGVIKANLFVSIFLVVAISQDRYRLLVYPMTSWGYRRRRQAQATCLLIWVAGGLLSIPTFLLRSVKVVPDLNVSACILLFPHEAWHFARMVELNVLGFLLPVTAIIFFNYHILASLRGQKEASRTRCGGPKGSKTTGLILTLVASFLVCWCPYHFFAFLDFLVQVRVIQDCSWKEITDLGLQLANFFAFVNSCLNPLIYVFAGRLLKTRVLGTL
In short: (§1)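 Fluo-4 Ca2+ readout, peak fluorescence. Stable CHO K1 transfectants; compound pre-incubated 10-20 min, then EC80 agonist—Lys-Des-Arg9-BK for hB1R, Des-Arg9-BK for rB1R. % inhibition vs maximal inhibition; IC50 from multiple concentrations, duplicate/triplicate, ≥2 independent runs.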

[2] = biological target: T2, human μ opiate receptor (Homo sapiens, UniProt P35372); experiment: Affinity for the human μ opiate receptor ([3H]-naloxone displacement, CHO-K1 receptor membrane preparation, SPA); format: binding; conditions: test concentration 1 μM; for inhibition at 1 µM: 1.5 h
T2 construct: purchased PerkinElmer Life Sciences, Zaventem, Belgium RB-HOM; host or cells: CHO-K1 cells (membrane preparation)
T2 sequence (P35372 whole entry): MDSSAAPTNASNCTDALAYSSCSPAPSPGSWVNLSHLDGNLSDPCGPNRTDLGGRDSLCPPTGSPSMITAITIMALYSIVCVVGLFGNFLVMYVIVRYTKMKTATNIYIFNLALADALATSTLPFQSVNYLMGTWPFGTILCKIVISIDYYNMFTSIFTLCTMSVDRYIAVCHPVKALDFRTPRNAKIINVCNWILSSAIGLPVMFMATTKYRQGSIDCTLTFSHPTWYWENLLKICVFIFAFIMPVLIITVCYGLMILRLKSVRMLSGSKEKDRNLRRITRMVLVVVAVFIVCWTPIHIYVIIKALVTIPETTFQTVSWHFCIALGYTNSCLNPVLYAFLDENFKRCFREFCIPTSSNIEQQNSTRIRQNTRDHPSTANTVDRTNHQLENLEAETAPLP
In short: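 Test compounds, 1 nmol/l [3H]-naloxone and CHO-K1 membranes bearing the human μ opiate receptor are combined with WGA-SPA beads. After 90 minutes at room temperature, plates are centrifuged and radioactivity counted. Specific-binding inhibition at 1 μmol/l is given in percent.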

[3] = biological target: T3, human bradykinin 1 receptor (B1R) (Homo sapiens, UniProt P46663); experiment: Functional investigation on the human bradykinin 1 receptor (B1R), Ca2+ FLIPR assay in CHO K1 hB1R cells; format: cell-based; conditions: test substance 10 μM; for inhibition at 10 µM: CHO-K1, B1R antagonism human, read-out: B1R Ant. h [10 μM] % Inhibition; for B1R Ant. h [10 μM] % Inhibition: B1R antagonism human
T3 construct: expressed in transfected cells; host or cells: CHO K1 cells
T3 sequence (P46663 1-353): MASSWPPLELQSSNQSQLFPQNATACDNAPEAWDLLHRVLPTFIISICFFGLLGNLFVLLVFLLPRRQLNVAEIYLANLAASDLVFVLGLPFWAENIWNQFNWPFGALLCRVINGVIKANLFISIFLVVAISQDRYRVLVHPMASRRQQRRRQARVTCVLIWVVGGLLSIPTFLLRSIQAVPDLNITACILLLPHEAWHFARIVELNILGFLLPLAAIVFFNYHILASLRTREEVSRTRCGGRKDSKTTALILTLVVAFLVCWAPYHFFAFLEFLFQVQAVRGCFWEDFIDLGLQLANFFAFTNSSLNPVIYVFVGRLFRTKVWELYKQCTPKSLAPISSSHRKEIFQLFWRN
In short: as §1

[4] = % inhibition compared with the maximum achievable inhibition
[5] = Table 3, to be read in the same way as Table 1, read-out: μ
[6] = Table 3, to be read in the same way as Table 1

| Molecule | inhibition at 1 µM [2, 5] | inhibition at 10 µM ([1]; Ca2+ FLIPR, CHO K1 rB1R cells) | inhibition at 10 µM ([3]; Ca2+ FLIPR, CHO K1 hB1R cells) | further results |
| --- | --- | --- | --- | --- |
| COc1cc(C)c(S(=O)(=O)N(C)CCOCC(=O)N2CCC(C(c3ccc(F)cc3)N3CCN(C)CC3)CC2)c(C)c1 (stereo not drawn) [Example 804, N-(2-(2-(4-((4-fluorophenyl)(4-methylpiperazin-1-yl)methyl)piperidin-1-yl)-2-oxoethoxy)ethyl)-4-methoxy-N,2,6-trimethylbenzenesulfonamide] | 9% |  |  | inhibition at 10 µM [1, 4]: 100%; inhibition at 10 µM [3, 4]: 105% |
| O=C(COC1CCN(S(=O)(=O)c2c(Cl)cc(Cl)cc2Cl)C1)NC1CCC(C(c2ccccc2)N2CCCC2)CC1 (stereo not drawn) [Example 635, N-(4-(phenyl(pyrrolidin-1-yl)methyl)cyclohexyl)-2-(1-(2,4,6-trichlorophenylsulfonyl)pyrrolidin-3-yloxy)acetamide] | 78% | 22% | 67% |  |
| O=C(COCC1CCCCN1S(=O)(=O)c1c(Cl)cc(Cl)cc1Cl)NCC1CCC(C(c2ccccc2)N2CCOCC2)CC1 (stereo not drawn) [Example 712, N-((4-(morpholino(phenyl)methyl)cyclohexyl)methyl)-2-((1-(2,4,6-trichlorophenylsulfonyl)piperidin-2-yl)methoxy)acetamide] | 40% | 100% | 46% |  |
| O=C(COC1CCCN(S(=O)(=O)c2c(Cl)cc(Cl)cc2Cl)C1)NC1CCC(C(CCc2ccccc2)N2CCOCC2)CC1 (stereo not drawn) [Example 672, N-(4-(1-morpholin-3-phenylpropyl)cyclohexyl)-2-(1-(2,4,6-trichlorophenylsulfonyl)piperidin-3-yloxy)acetamide] |  |  |  | B1R Ant. r [10 μM] % Inhibition ([1]; Ca2+ FLIPR, CHO K1 rB1R cells): 11%; μ [2, 6]: 16 % inhibition; B1R Ant. h [10 μM] % Inhibition ([3]; Ca2+ FLIPR, CHO K1 hB1R cells): 18% |
| COc1cc(C)c(S(=O)(=O)N2CCCCC2COCC(=O)NCC2CCC(C(CCc3ccccc3)N3CCCC3)CC2)c(C)c1 (stereo not drawn) [Example 736, 2-((1-(4-methoxy-2,6-dimethylphenylsulfonyl)piperidin-2-yl)methoxy)-N-((4-(3-phenyl-1-(pyrrolidin-1-yl)propyl)cyclohexyl)methyl)acetamide] | 34% | 102% | 103% |  |
| CN(C)C(c1ccccc1)C1CCC(NC(=O)CCOCN(C)S(=O)(=O)c2c(Cl)cc(Cl)cc2Cl)CC1 (stereo not drawn) [Example 620, N-[4-(dimethylaminophenylmethyl)-cyclohexyl]-3-{[methyl-(2,4,6-trichlorobenzenesulfonyl)-amino]-methoxy}-propionamide] |  | 73% | 103% | inhibition at 1 µM ([2]; Table 2, read-out: μ receptor): 92% |
| COc1cc(C)c(S(=O)(=O)N2CCCC(COCC(=O)NC3CCC(C(CCc4ccccc4)N4CCOCC4)CC3)C2)c(C)c1 (stereo not drawn) [Example 678, 2-((1-(4-methoxy-2,6-dimethylphenylsulfonyl)piperidin-3-yl)methoxy)-N-(4-(1-morpholino-3-phenylpropyl)cyclohexyl)acetamide] | 6% | 73% | 45% |  |
| COc1cc(C)c(S(=O)(=O)N2CCCCC2COCC(=O)NC2CCC(C(CCc3ccccc3)N3CCOCC3)CC2)c(C)c1 (stereo not drawn) [Example 733, 2-((1-(4-methoxy-2,6-dimethylphenylsulfonyl)piperidin-2-yl)methoxy)-N-(4-(1-morpholino-3-phenylpropyl)cyclohexyl)acetamide] | 21% | 100% | 87% |  |
| N-((4-(morpholino(phenyl)methyl)cyclohexyl)methyl)-2-((1-(2,4,6-trichlorophenylsulfonyl)piperidin-3-yl)methoxy)acetamide [Example 713] |  |  |  | B1R Ant. r [10 μM] % Inhibition ([1]; Ca2+ FLIPR, CHO K1 rB1R cells): 16%; μ [2, 6]: 14 % inhibition; B1R Ant. h [10 μM] % Inhibition ([3]; Ca2+ FLIPR, CHO K1 hB1R cells): −15% |
| CN(CCOCC(=O)NCC1CCC(C(CCc2ccccc2)N2CCCC2)CC1)S(=O)(=O)c1c(Cl)cc(C(F)(F)F)cc1Cl (stereo not drawn) [Example 746, 2-(2-(2,6-dichloro-N-methyl-4-(trifluoromethyl)phenylsulfonamido)ethoxy)-N-((4-(3-phenyl-1-(pyrrolidin-1-yl)propyl)cyclohexyl)methyl)acetamide] | 8% | 51% | 98% |  |
| COc1cc(C)c(S(=O)(=O)N2CCCC(COCC(=O)NC3CCC(C(c4ccccc4)N4CCN(C)CC4)CC3)C2)c(C)c1 (stereo not drawn) [Example 702, 2-((1-(4-methoxy-2,6-dimethylphenylsulfonyl)piperidin-3-yl)methoxy)-N-(4-((4-methylpiperazin-1-yl)(phenyl)methyl)cyclohexyl)acetamide] | 19% | 74% | 70% |  |
| COc1cc(C)c(S(=O)(=O)N2CCCC2COCC(=O)NC2CCC(C(CCc3ccccc3)N3CCCCC3)CC2)c(C)c1 (stereo not drawn) [Example 677, 2-((1-(4-methoxy-2,6-dimethylphenylsulfonyl)pyrrolidin-2-yl)methoxy)-N-(4-(3-phenyl-1-(piperidin-1-yl)propyl)cyclohexyl)acetamide] | 60% | 107% | 104% |  |
| O=C(COCC1CCCN1S(=O)(=O)c1c(Cl)cc(Cl)cc1Cl)NC1CCC(C(c2ccccc2)N2CCCC2)CC1 (stereo not drawn) [Example 650, N-(4-(phenyl(pyrrolidin-1-yl)methyl)cyclohexyl)-2-((1-(2,4,6-trichlorophenylsulfonyl)pyrrolidin-2-yl)methoxy)acetamide] | 92% | 99% | 96% |  |
| CN(CCOCC(=O)NC1CCC(C(CCc2ccccc2)N2CCOCC2)CC1)S(=O)(=O)c1c(Cl)cccc1Cl (stereo not drawn) [Example 664, 2-(2-(2,6-dichloro-N-methylphenylsulfonamido)ethoxy)-N-(4-(1-morpholino-3-phenylpropyl)cyclohexyl)acetamide] | 5% | 11% | 70% |  |
| COc1cc(C)c(S(=O)(=O)N(C)CCOCC(=O)NC2CCC(C(c3ccccc3)N(C)C)CC2)c(C)c1C (stereo not drawn) [Example 597, N-[4-(dimethylaminophenylmethyl)-cyclohexyl]-2-{2-[(4-methoxy-2,3,6-trimethylbenzenesulfonyl)-methylamino]-ethoxy}-acetamide] |  |  |  | B1R Ant. r [10 μM] % Inhibition ([1]; Ca2+ FLIPR, CHO K1 rB1R cells): −22%; inhibition at 1 µM ([2]; Table 2, read-out: μ receptor): 87%; B1R Ant. h [10 μM] % Inhibition ([3]; Ca2+ FLIPR, CHO K1 hB1R cells): 72% |
| CN(CCOCC(=O)NCC1CCC(C(CCc2ccccc2)N2CCOCC2)CC1)S(=O)(=O)c1ccc(Cl)cc1Cl (stereo not drawn) [Example 716, 2-(2-(2,4-dichloro-N-methylphenylsulfonamido)ethoxy)-N-((4-(1-morpholino-3-phenylpropyl)cyclohexyl)methyl)acetamide] | 13% | 31% | 59% |  |
| COc1cc(C)c(S(=O)(=O)N2CCC(OCC(=O)NCC3CCC(C(c4ccccc4)N4CCOCC4)CC3)C2)c(C)c1 (stereo not drawn) [Example 724, 2-(1-(4-methoxy-2,6-dimethylphenylsulfonyl)pyrrolidin-3-yloxy)-N-((4-(morpholino(phenyl)methyl)cyclohexyl)methyl)acetamide] | 8% | 50% | 55% |  |
| O=C(COCC1CCCCN1S(=O)(=O)c1c(Cl)cc(Cl)cc1Cl)NCC1CCC(C(c2ccccc2)N2CCCC2)CC1 (stereo not drawn) [Example 658, N-((4-(phenyl(pyrrolidin-1-yl)methyl)cyclohexyl)methyl)-2-((1-(2,4,6-trichlorophenylsulfonyl)piperidin-2-yl)methoxy)acetamide] | 88% | 105% | 104% |  |
